Measurements: patent US20150297600A1, “Method Of Achieving Increased Systemic Availability of Methotrexate” (Antares Pharma, Inc., priority 2014, published 2015)
“Also recorded” adds a separate entry of the source.

How the values were obtained:
[1] = From the text: An algorithm was developed to correlate a known oral dose of methotrexate to a jet injector dose. Table 1 illustrates the calculated correlation between oral doses and needle-assisted jet injector doses of methotrexate. The second column illustrates the precise subcutaneous dose calculated based on the algorithm, described in detail below. The third column represents the administrable dose, based on commercially available doses, closest in value to the precise calculated dose.
Based on the data set forth in table 1, a line equation of y=mx+b was developed to correlate an oral dose of methotrexate to an equivalent dose for use with a jet injector. In the present equation, illustrated by the graph shown in FIG. 1, the slope, m, was determined to be 0.6101 and a y-intercept, b, to be 2.9274. The correlation coefficient of the line, R^2, is 0.9594.

[2] = Multicenter three-way crossover study: oral vs subcutaneous (abdomen, thigh) methotrexate, blood drug levels for 24 hours and adverse events; assay type: in vivo, patients with adult RA
Description: A multicenter, three-way crossover study was conducted, wherein patients greater than or equal to 18 years old with adult RA undergoing treatment with MTX for three months or more were assigned to receive one of four dose levels of OTREXUP™ (subcutaneous methotrexate), 10 mg, 15 mg, 20 mg, and 25 mg weekly in a random sequence of three treatments: oral, subcutaneous into the abdomen and subcutaneous into the thigh. For 24 hours after the administration of each treatment, blood samples were collected to measure drug levels and injection sites were assessed.

- slope, m, of line equation correlating oral dose to equivalent jet injector dose [1]: 0.6101
- y-intercept, b, of line equation correlating oral dose to equivalent jet injector dose [1]: 2.9274
Compound: CN(Cc1cnc2nc(N)nc(N)c2n1)c1ccc(C(=O)N[C@@H](CCC(=O)O)C(=O)O)cc1 [methotrexate]
- plasma levels of oral dosed methotrexate, 20 mg or 25 mg doses versus 15 mg doses ([2]; oral): no greater
- systemic availability of methotrexate following oral dosing ([2]; oral, 10, 15, 20, 25 mg weekly, RA patients): do not provide increased systemic availability; also recorded: plateaus at 15 mg and greater
- association of higher systemic methotrexate exposure with adverse events ([2]; short term study): not associated with increases in adverse events
